For one assay, the target named is T1, hP2X2/3H (Homo sapiens, UniProt P56373+Q9UBL9).
T1 construct: expressed in transfected cells; host or cells: e.g. HEK293 or 1321N1
T1 sequence (Q9UBL9 1-471): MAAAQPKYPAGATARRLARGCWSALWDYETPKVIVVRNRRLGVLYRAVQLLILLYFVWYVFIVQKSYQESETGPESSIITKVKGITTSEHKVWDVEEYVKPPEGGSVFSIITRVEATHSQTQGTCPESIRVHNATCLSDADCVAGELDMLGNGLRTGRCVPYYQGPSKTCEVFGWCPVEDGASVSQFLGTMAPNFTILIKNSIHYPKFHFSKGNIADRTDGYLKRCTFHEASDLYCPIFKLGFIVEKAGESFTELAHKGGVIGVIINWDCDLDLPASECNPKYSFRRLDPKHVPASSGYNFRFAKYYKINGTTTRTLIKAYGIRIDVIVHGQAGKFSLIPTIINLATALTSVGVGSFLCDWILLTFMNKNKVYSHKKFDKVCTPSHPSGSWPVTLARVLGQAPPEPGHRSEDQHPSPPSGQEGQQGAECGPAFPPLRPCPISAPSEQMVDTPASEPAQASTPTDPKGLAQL
T1 sequence (P56373 1-397): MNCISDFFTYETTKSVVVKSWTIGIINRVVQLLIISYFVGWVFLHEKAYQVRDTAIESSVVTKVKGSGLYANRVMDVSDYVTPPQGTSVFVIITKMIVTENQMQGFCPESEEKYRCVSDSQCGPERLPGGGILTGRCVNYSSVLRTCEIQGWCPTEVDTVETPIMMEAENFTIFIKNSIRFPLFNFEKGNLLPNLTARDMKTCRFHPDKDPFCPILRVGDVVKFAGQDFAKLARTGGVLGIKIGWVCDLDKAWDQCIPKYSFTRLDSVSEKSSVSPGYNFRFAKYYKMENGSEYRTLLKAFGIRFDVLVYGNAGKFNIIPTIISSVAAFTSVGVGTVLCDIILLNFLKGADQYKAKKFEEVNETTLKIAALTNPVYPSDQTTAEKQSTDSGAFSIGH
Nature of the assay: Calcium uptake assay (P2X antagonist assay), P2X2/3 heteromer. The format is cell-based. The conditions noted are these: hP2X2/3H. The essentials: (§1)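 Stably or transiently transfected HEK293 or 1321N1 cells; the heteromer is made by adding P2X3 to a P2X2-stable line, with heteromer function isolated pharmacologically. The peak-minus-baseline FLIPR calcium signal gives % inhibition and a 4-parameter-logistic IC50.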

Another assay concerns the target T2, hP2X3 (Homo sapiens, UniProt P56373).
T2 construct: expressed in transfected cells; host or cells: e.g. HEK293 or 1321N1
T2 sequence (P56373 1-397): T1 sequence (P56373 1-397)
Briefly: Calcium uptake assay (P2X antagonist assay), P2X3 homomer. It is filed as cell-based. The conditions noted are these: hP2X3. In outline: as §1

The mark [1] stands for this setting: Ca influx (calcium uptake assay), read-out: IC50 hP2X2/3H.
Setting [2] is: Ca influx (calcium uptake assay), read-out: IC50 hP2X3.
Where [3] appears, read: calcium uptake assay, read-out: IC50 hP2X2/3H (nM), Ca Influx.
[4] abbreviates: calcium uptake assay, read-out: IC50 hP2X3 (nM), Ca Influx.

Read-outs that look alike come from different tables or passages of the source.

For `Cc1ccc(-c2cc(C(=O)N[C@H](C)c3ccc(C)nc3)cc(S(=O)(=O)C3CCCC3)c2)cc1` [Compound 218], the IC50 at hP2X2/3H (setting [1]) and at hP2X3 (setting [2]) was < 100 nM in each case.
With `Cc1ccc(-c2cc(C(=O)N[C@H](C)c3cnc(C)c(Cl)c3)cc(S(C)(=O)=O)c2)cc1` [Compound 149], the IC50 at hP2X2/3H (setting [3]) and at hP2X3 (setting [4]) was 100 to 500 nM in each case.
Regarding `Cc1ccc(-c2cc(C(=O)NCc3ccc(C)nc3)cc(C(=O)N(C)[C@@H]3CCNC3)c2)cc1` [Compound 165, (R)—N3,4′-Dimethyl-N5-((6-methylpyridin-3-yl)methyl)-N3-(pyrrolidin-3-yl)biphenyl-3,5-dicarboxamide], the values for the IC50 on hP2X2/3H (setting [3]) and at hP2X3 (setting [4]) were 501 to 1000 nM and 100 to 500 nM, respectively.
For `Cc1ccc(-c2cc(C(=O)NCc3cnc(C)nc3)cc(C(=O)N3CCCC3)c2)c(C#N)c1` [Compound 39, 2′-Cyano-4′-methyl-N-((2-methylpyrimidin-5-yl)methyl)-5-(pyrrolidine-1-carbonyl)biphenyl-3-carboxamide], the IC50 on hP2X2/3H (setting [3]) and at hP2X3 (setting [4]) was < 100 nM each time.
On to `Cc1ccc(-c2cc(S(=O)(=O)N3CCCC3)cc(C(=O)N[C@H](C)c3cnc(C)nc3)c2C)cc1` [Compound 65, (R)-2,4′-Dimethyl-N-(1-(2-methylpyrimidin-5-yl)ethyl)-5-(pyrrolidin-1-ylsulfonyl)biphenyl-3-carboxamide], for which the IC50 on hP2X2/3H (setting [3]) is > 1000 nM; on hP2X3 (setting [4]), 100 to 500 nM.
The matching figures for `Cc1ncc(CNC(=O)c2cc(C(=O)N3CCCC3)cc(-c3ccc(C(F)(F)F)cc3)c2)cn1` [Compound 54]: > 1000 nM and > 1000 nM.
As to `Cc1ccc(-c2cc(C(=O)N[C@H](C)c3cnc(C)nc3)cc(C(O)c3ccccn3)c2)nc1` (some centres unmarked) [Compound 286], the IC50 at hP2X2/3H (setting [1]) and on hP2X3 (setting [2]) was < 100 nM in each case.
As for `Cc1ccc(-c2cc(OCC(O)CO)cc(C(=O)N[C@H](C)c3ccc(C)nc3)c2)c(C#N)c1` (stereo partly drawn) [Compound 315, 2′-Cyano-5-(2,3-dihydroxypropoxy)-4′-methyl-N—((R)-1-(6-methylpyridin-3-yl)ethyl)biphenyl-3-carboxamide], the IC50 is 100 to 500 nM on hP2X2/3H (setting [1]) and < 100 nM on hP2X3 (setting [2]).
In the case of `Cc1ccc(-c2cc(C(=O)NCc3ccc(C)nc3)cc(C(=O)N3Cc4ccccc4C3)c2)cc1` [Compound 185, 5-(Isoindoline-2-carbonyl)-4′-methyl-N-((6-methylpyridin-3-yl)methyl)biphenyl-3-carboxamide], the IC50 at hP2X2/3H (setting [3]) and on hP2X3 (setting [4]) was 100 to 500 nM throughout.
As to `Cc1ccc(-c2cc(C(=O)NCc3ccc(C)nc3)cc(C(=O)N3CCN4CCCC4C3)c2)cc1` (centres unmarked) [Compound 128], the IC50 on hP2X2/3H (setting [3]) and on hP2X3 (setting [4]) was < 100 nM each time.
Turning to `COc1cc(C(=O)N[C@H](C)c2cnc(C)nc2)cc(-c2ccc(C)cn2)c1` [Compound 225, (R)-3-Methoxy-5-(5-methylpyridin-2-yl)-N-(1-(2-methylpyrimidin-5-yl)ethyl)benzamide], the IC50 is 100 to 500 nM on hP2X2/3H (setting [1]) and < 100 nM at hP2X3 (setting [2]).
As to `Cc1ccc(-c2cc(C(=O)N[C@H](C)c3ccc(C)nc3)cc(S(C)(=O)=O)c2)cc1` [Compound 171], the IC50 at hP2X2/3H (setting [3]) and at hP2X3 (setting [4]) was < 100 nM in each case.
Take `Cc1ccc(-c2cc(Oc3nccs3)cc(C(=O)NCc3cnc(C)nc3)c2)c(C#N)c1` [Compound 261]: the IC50 is 100 to 500 nM on hP2X2/3H (setting [1]) and < 100 nM on hP2X3 (setting [2]).
Consider `Cc1ccc(-c2cc(C(=O)N[C@H](C)c3cnc(C)nc3)cc(C(=O)N3CCC3)c2)cc1` [Compound 78], for which the IC50 at hP2X2/3H (setting [3]) and on hP2X3 (setting [4]) was < 100 nM in each case.
For the compound `Cc1ccc(-c2cc(C(=O)NCc3cnc(C)nc3)cc(C(=O)N(C)CC(C)C)c2)cc1` [Compound 12, N3-Isobutyl-N3,4′-dimethyl-N5-((2-methylpyrimidin-5-yl)methyl)biphenyl-3,5-dicarboxamide], the IC50 on hP2X2/3H (setting [3]) and at hP2X3 (setting [4]) was < 100 nM in each case.
With `Cc1ccc(-c2cc(C(=O)NC(C)c3cnccn3)cc(C(=O)N(C)CC(C)C)c2)cc1` (centres unmarked) [Compound 8, N3-Isobutyl-N3,4′-dimethyl-N-5-(1-(pyrazin-2-yl)ethyl)biphenyl-3,5-dicarboxamide], the results for the IC50 at hP2X2/3H (setting [3]) and on hP2X3 (setting [4]) were 100 to 500 nM and < 100 nM, respectively.
For the compound `COC1CCN(C(=O)c2cc(C(=O)NCc3cnc(C)nc3)cc(-c3ccc(C)cc3)c2)C1` (centres unmarked) [Compound 32], the IC50 on hP2X2/3H (setting [3]) and on hP2X3 (setting [4]) was < 100 nM in each case.
On to `Cc1ccc(-c2cc(C(=O)N[C@H](C)c3ccc(C(F)(F)F)nc3)cc(S(C)(=O)=O)c2)nc1` [Compound 181, (R)-3-(5-Methylpyridin-2-yl)-5-(methylsulfonyl)-N-(1-(6-(trifluoromethyl)pyridin-3-yl)ethyl)benzamide], for which the IC50 was 100 to 500 nM on hP2X2/3H (setting [3]) and < 100 nM at hP2X3 (setting [4]).
The matching figures for `Cc1ccc(CNC(=O)c2cc(-c3ccc(C)c(Cl)c3)cc(S(C)(=O)=O)c2)cn1` [Compound 120]: > 1000 nM and > 1000 nM.
As to `Cc1ccc(-c2cc(C(=O)N[C@H](C)c3ccc(C)nc3)cc(C(O)c3ccccc3)c2)c(C#N)c1` (some centres unmarked) [Compound 279], the IC50 at hP2X2/3H (setting [1]) and at hP2X3 (setting [2]) was < 100 nM each time.
`Cc1ccc(-c2cc(OCC(O)CO)cc(C(=O)N[C@H](C)c3ccc(C)nc3)c2)cc1` (some centres unmarked) [Compound 318]: the IC50 on hP2X2/3H (setting [1]) and on hP2X3 (setting [2]) was < 100 nM in each case.
Consider `Cc1ccc(-c2cc(C(=O)N[C@H](CO)c3ccc(C(F)(F)F)nc3)cc(S(C)(=O)=O)c2)cc1` [Compound 226], for which the IC50 on hP2X2/3H (setting [1]) was 100 to 500 nM; at hP2X3 (setting [2]), < 100 nM.
The like results for `Cc1ccc(-c2cc(OC3CCOC3)cc(C(=O)N[C@H](C)c3ccc(C)nc3)c2)nc1` (some centres unmarked) [Compound 333] were, in that order, < 100 nM and < 100 nM.
On to `Cc1ccc(-c2cc(C(=O)N[C@H](C)c3cnc(C)nc3)cc(C(O)CO)c2)c(C#N)c1` (some centres unmarked) [Compound 360], for which the IC50 was 100 to 500 nM on hP2X2/3H (setting [1]) and < 100 nM at hP2X3 (setting [2]).
The like results for `[2H]C([2H])([2H])c1ccc(-c2cc(C(=O)NCc3ccc(C)nc3)cc(C(=O)N3CCCC3)c2)cc1` [Compound 203, 4′-Methyl-d3-N-((6-methylpyridin-3-yl)methyl)-5-(pyrrolidine-1-carbonyl)biphenyl-3-carboxamide] were, in that order, < 100 nM and < 100 nM.
As for `Cc1ccc(-c2cc(Oc3nc(C)cs3)cc(C(=O)N[C@H](C)c3ccc(C)nc3)c2)cc1` [Compound 381], the IC50 at hP2X2/3H (setting [1]) and at hP2X3 (setting [2]) was < 100 nM each time.
With `Cc1ccc(-c2cc(C(=O)NCc3ccc(C)nc3)cc(C(O)CN3CCCC3)c2)cc1` (centres unmarked) [Compound 230], the IC50 at hP2X2/3H (setting [1]) is 100 to 500 nM; at hP2X3 (setting [2]), < 100 nM.
For the compound `Cc1ccc(-c2cc(C(=O)N[C@H](C)c3ccc(C)nc3)cc(C(O)CO)c2)nc1` (some centres unmarked) [Compound 319], the IC50 on hP2X2/3H (setting [1]) was 100 to 500 nM; on hP2X3 (setting [2]), < 100 nM.
On to `Cc1ccc(-c2cc(C(=O)NCc3cnc(C(C)C)nc3)cc(C(=O)N3CCCC3)c2)cc1` [Compound 80], for which the results for the IC50 on hP2X2/3H (setting [3]) and on hP2X3 (setting [4]) were > 1000 nM and 501 to 1000 nM, respectively.
For the compound `Cc1ccc(-c2cc(Oc3ccccn3)cc(C(=O)N[C@H](C)c3ccc(C)nc3)c2)nc1` [Compound 271], the IC50 on hP2X2/3H (setting [1]) and at hP2X3 (setting [2]) was < 100 nM in each case.
In the case of `Cc1ccc(-c2cc(C(=O)N[C@H](C)c3ccc(C)nc3)cc(C(=O)N3CCCC3)c2)nc1` [Compound 173], the IC50 at hP2X2/3H (setting [3]) and at hP2X3 (setting [4]) was < 100 nM each time.
Regarding `Cc1ncc([C@@H](C)NC(=O)c2cc(C(=O)N3CCCC3)cc(-c3ccc(Br)cc3)c2)cn1` [Compound 216], the IC50 on hP2X2/3H (setting [1]) and on hP2X3 (setting [2]) was < 100 nM in each case.
With `Cc1ccc(-c2cc(C(=O)NCc3ccc(Cl)nc3)cc(C(=O)N3CC(O)C3)c2)cc1` [Compound 131], the IC50 on hP2X2/3H (setting [3]) and at hP2X3 (setting [4]) was < 100 nM in each case.
Turning to `CCCS(=O)(=O)c1cc(C(=O)N[C@@H](C)CO)cc(-c2ccc(C)cc2)c1` [Compound 42], the results for the IC50 on hP2X2/3H (setting [3]) and on hP2X3 (setting [4]) were > 1000 nM and < 100 nM, respectively.
Turning to `Cc1ccc(-c2cc(C(=O)NCc3ccc(C)nc3)cc(C(O)CN(C)CCO)c2)cc1` (centres unmarked) [Compound 368], the IC50 on hP2X2/3H (setting [1]) is 501 to 1000 nM; at hP2X3 (setting [2]), < 100 nM.
For `COc1ccc(CNC(=O)c2cc(C(=O)N3CCCC3)cc(-c3ccc(C)cc3)c2)cn1` [Compound 152], the IC50 on hP2X2/3H (setting [3]) and at hP2X3 (setting [4]) was < 100 nM each time.
Consider `Cc1ncc(CNC(=O)c2cc(C(=O)N3CCCC3)cc(-c3ccc(Cl)cc3)c2)cn1` [Compound 40], for which the IC50 at hP2X2/3H (setting [3]) was 100 to 500 nM; on hP2X3 (setting [4]) it was < 100 nM.
